The source of these data is article PMC12021451 (Planta Medica, 2025).

The structures appear in SMILES notation. Where a name gives a salt, the structure may show the parent alone.

The data set can be described thus: blood-to-plasma concentration ratio. It counts as in vitro ADME, human. Particulars: range of 4 to 1000 ng/mL.

As for `C/C=C1/C[C@@H](C)[C@](O)(CO)C(=O)OCC2=CC[N@@+]3([O-])CC[C@@H](OC1=O)[C@@H]23` [Retrorsine N -oxide], the “Effect of the compound concentration on the Rb value” (“Effect of the compound concentration” below) was “no concentration dependency was observed”.
For the compound `Cn1c(=O)c2c(ncn2C)n(C)c1=O` [Caffeine], the “Effect of the compound concentration” value was “not observed”.
As to `CN(C)CCCN1c2ccccc2CCc2ccccc21` [Imipramine, imipramine hydrochlorid], the “Effect of the compound concentration” value is “not observed”.
